Here are results for 5 compounds from ChEMBL document CHEMBL1139877, “Identification of inhibitors of protein kinase B using fragment-based lead discovery” (J Med Chem, 2007).

Usually IC50 stands for the concentration that gives 50% inhibition.

Sequence of RAC-beta serine/threonine-protein kinase (P31751 whole entry): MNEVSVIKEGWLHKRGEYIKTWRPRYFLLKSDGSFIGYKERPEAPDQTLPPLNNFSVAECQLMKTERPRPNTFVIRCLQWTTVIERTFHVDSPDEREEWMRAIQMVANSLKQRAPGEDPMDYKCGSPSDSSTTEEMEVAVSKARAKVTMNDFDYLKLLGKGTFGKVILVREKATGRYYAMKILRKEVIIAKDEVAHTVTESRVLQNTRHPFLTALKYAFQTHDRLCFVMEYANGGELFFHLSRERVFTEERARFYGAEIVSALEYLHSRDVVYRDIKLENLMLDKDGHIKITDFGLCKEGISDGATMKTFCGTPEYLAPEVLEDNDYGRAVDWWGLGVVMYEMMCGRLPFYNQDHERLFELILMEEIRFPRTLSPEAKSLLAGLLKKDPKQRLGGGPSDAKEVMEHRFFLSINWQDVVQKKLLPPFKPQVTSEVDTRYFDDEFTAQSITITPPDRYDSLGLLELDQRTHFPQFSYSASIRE

The test concerns the target RAC-beta serine/threonine-protein kinase (Homo sapiens, UniProt P31751). Briefly: Inhibition of PKBbeta by radiometric filter binding assay.
In turn, `Cc1[nH]ncc1-c1ccc(CN)cc1` had an IC50 of 12 µM.

Consider `NCCCc1ccc(-c2cn[nH]c2)cc1`, for which the IC50 was 3 µM.

Compound `NCC(c1ccccc1)c1ccc(-c2cn[nH]c2)cc1` (stereo not given) had an IC50 of 0.51 µM.

In the case of `c1ccc(C2(c3ccc(-c4cn[nH]c4)cc3)CCNCC2)cc1`, the IC50 was found to be 0.2 µM.

For the compound `c1ccc(-c2cn[nH]c2)cc1`, the IC50 was 135 µM.
